Test results published in PubChem BioAssay (NCI).
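Where inhibition never reached the appropriate level, the endpoint shown equals the highest concentration tested. Otherwise, values were interpolated linearly from a five-concentration, 48-hour dose response in 96-well plates. TGI: concentration producing complete growth inhibition.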

Experiments:
Experiment in all cases: DTP human tumour cell line panel, 48 h
[1] = tested on: OVCAR-4 ovarian
[2] = tested on: SW-620 colon
[3] = tested on: SK-MEL-5 melanoma
[4] = tested on: HOP-92 NSCLC
[5] = tested on: HT29 colon
[6] = tested on: RXF 393 renal
[7] = tested on: SN12C renal
[8] = tested on: OVCAR-5 ovarian
[9] = tested on: M19-MEL melanoma
[10] = tested on: A549 NSCLC
[11] = tested on: SK-OV-3 ovarian
[12] = tested on: OVCAR-3 ovarian
[13] = tested on: HCT-15 colon
[14] = tested on: COLO 205 colon
[15] = tested on: K-562 leukemia
[16] = tested on: ACHN renal
[17] = tested on: SNB-75 CNS
[18] = tested on: UACC-257 melanoma
[19] = tested on: DLD-1 colon
[20] = tested on: M14 melanoma
[21] = tested on: XF 498 CNS
[22] = tested on: SF-539 CNS
[23] = tested on: NCI-H23 lung
[24] = tested on: UACC-62 melanoma
[25] = tested on: CAKI-1 renal
[26] = tested on: RPMI-8226 leukemia
[27] = tested on: OVCAR-8 ovarian
[28] = tested on: IGROV1 ovarian
[29] = tested on: SF-268 CNS
[30] = tested on: HCT-116 colon
[31] = tested on: DMS 114 small cell lung
[32] = tested on: 786-0 renal
[33] = tested on: SNB-19 CNS
[34] = tested on: A498 renal
[35] = tested on: MALME-3M melanoma
[36] = tested on: TK-10 renal
[37] = tested on: NCI-H522 lung
[38] = tested on: EKVX NSCLC
[39] = tested on: SF-295 CNS
[40] = tested on: NCI-H226 lung
[41] = tested on: MOLT-4 leukemia
[42] = tested on: LOX IMVI melanoma
[43] = tested on: RXF-631 renal
[44] = tested on: LXFL 529 NSCLC
[45] = tested on: UO-31 renal
[46] = tested on: DMS 273 small cell lung
[47] = tested on: SK-MEL-2 melanoma
[48] = tested on: SK-MEL-28 melanoma
[49] = tested on: SNB-78 CNS
[50] = tested on: HL-60(TB) leukemia
[51] = tested on: KM20L2 colon
[52] = tested on: NCI-H460 lung
[53] = tested on: HOP-18 NSCLC
[54] = tested on: CCRF-CEM leukemia
[55] = tested on: KM12 colon
[56] = tested on: HCC-2998 colon
[57] = tested on: HOP-62 NSCLC

Question: For `O=C(CC1(O)C(=O)Nc2ccccc21)c1ccc(Cl)cc1Cl` (stereo not drawn), which TGI [1] is on record?
Answer: Its TGI is greater than 100 µM.

Question: And the TGI [2]?
Answer: Its TGI is greater than 100 µM.

Question: And the TGI [3]?
Answer: Its TGI is greater than 100 µM.

Question: What about the TGI [4] of the same compound?
Answer: Its TGI is greater than 100 µM.

Question: And the TGI [5]?
Answer: Its TGI is greater than 100 µM.

Question: What about the TGI [6] of the same compound?
Answer: The TGI was greater than 100 µM.

Question: What about the TGI [7] of the same compound?
Answer: The TGI was greater than 100 µM.

Question: What about the TGI [8] of the same compound?
Answer: The TGI was greater than 100 µM.

Question: What about the TGI [9] of the same compound?
Answer: The TGI was greater than 100 µM.

Question: And the TGI [10]?
Answer: The TGI was greater than 100 µM.

Question: What about the TGI [11] of the same compound?
Answer: The TGI was greater than 100 µM.

Question: What about the TGI [12] of the same compound?
Answer: The TGI was greater than 100 µM.

Question: And the TGI [13]?
Answer: Its TGI is greater than 100 µM.

Question: And the TGI [14]?
Answer: The TGI was greater than 100 µM.

Question: And the TGI [15]?
Answer: The TGI was greater than 100 µM.

Question: And the TGI [16]?
Answer: The TGI was greater than 100 µM.

Question: What about the TGI [17] of the same compound?
Answer: The TGI was greater than 100 µM.

Question: And the TGI [18]?
Answer: Its TGI is greater than 100 µM.

Question: And the TGI [19]?
Answer: The TGI was greater than 100 µM.

Question: What about the TGI [20] of the same compound?
Answer: Its TGI is greater than 100 µM.

Question: And the TGI [21]?
Answer: The TGI was greater than 100 µM.

Question: And the TGI [22]?
Answer: The TGI was greater than 100 µM.

Question: What about the TGI [23] of the same compound?
Answer: The TGI was greater than 100 µM.

Question: And the TGI [24]?
Answer: The TGI was greater than 100 µM.

Question: What about the TGI [25] of the same compound?
Answer: The TGI was greater than 100 µM.

Question: And the TGI [26]?
Answer: Its TGI is greater than 100 µM.

Question: And the TGI [27]?
Answer: The TGI was greater than 100 µM.

Question: What about the TGI [28] of the same compound?
Answer: Its TGI is greater than 100 µM.

Question: What about the TGI [29] of the same compound?
Answer: The TGI was greater than 100 µM.

Question: What about the TGI [30] of the same compound?
Answer: Its TGI is greater than 100 µM.

Question: And the TGI [31]?
Answer: Its TGI is greater than 100 µM.

Question: What about the TGI [32] of the same compound?
Answer: The TGI was greater than 100 µM.

Question: And the TGI [33]?
Answer: Its TGI is greater than 100 µM.

Question: And the TGI [34]?
Answer: Its TGI is greater than 100 µM.

Question: What about the TGI [35] of the same compound?
Answer: The TGI was greater than 100 µM.

Question: And the TGI [36]?
Answer: Its TGI is greater than 100 µM.

Question: What about the TGI [37] of the same compound?
Answer: Its TGI is greater than 100 µM.

Question: And the TGI [38]?
Answer: Its TGI is greater than 100 µM.

Question: What about the TGI [39] of the same compound?
Answer: Its TGI is greater than 100 µM.

Question: What about the TGI [40] of the same compound?
Answer: Its TGI is greater than 100 µM.

Question: And the TGI [41]?
Answer: The TGI was greater than 100 µM.

Question: What about the TGI [42] of the same compound?
Answer: The TGI was greater than 100 µM.

Question: What about the TGI [43] of the same compound?
Answer: Its TGI is greater than 100 µM.

Question: What about the TGI [44] of the same compound?
Answer: The TGI was greater than 100 µM.

Question: And the TGI [45]?
Answer: The TGI was greater than 100 µM.

Question: What about the TGI [46] of the same compound?
Answer: Its TGI is greater than 100 µM.

Question: And the TGI [47]?
Answer: Its TGI is greater than 100 µM.

Question: And the TGI [48]?
Answer: The TGI was greater than 100 µM.

Question: What about the TGI [49] of the same compound?
Answer: Its TGI is greater than 100 µM.

Question: And the TGI [50]?
Answer: The TGI was greater than 100 µM.

Question: What about the TGI [51] of the same compound?
Answer: Its TGI is greater than 100 µM.

Question: With `COc1ccc(C[C@]23CCC(=O)N2CCc2cc(OC)c(O)cc23)cc1O` as the compound, how does the TGI [1] read?
Answer: The TGI was greater than 100 µM.

Question: And the TGI [2]?
Answer: Its TGI is greater than 100 µM.

Question: What about the TGI [3] of the same compound?
Answer: Its TGI is greater than 100 µM.

Question: What about the TGI [4] of the same compound?
Answer: Its TGI is greater than 100 µM.

Question: What about the TGI [5] of the same compound?
Answer: Its TGI is greater than 100 µM.

Question: And the TGI [6]?
Answer: The TGI was greater than 100 µM.

Question: And the TGI [7]?
Answer: The TGI was greater than 100 µM.

Question: And the TGI [8]?
Answer: Its TGI is greater than 100 µM.

Question: What about the TGI [52] of the same compound?
Answer: Its TGI is greater than 100 µM.

Question: And the TGI [9]?
Answer: Its TGI is greater than 100 µM.

Question: What about the TGI [10] of the same compound?
Answer: Its TGI is greater than 100 µM.

Question: And the TGI [12]?
Answer: The TGI was greater than 100 µM.

Question: What about the TGI [13] of the same compound?
Answer: The TGI was greater than 100 µM.

Question: What about the TGI [14] of the same compound?
Answer: Its TGI is greater than 100 µM.

Question: What about the TGI [15] of the same compound?
Answer: The TGI was greater than 100 µM.

Question: What about the TGI [16] of the same compound?
Answer: Its TGI is greater than 100 µM.

Question: What about the TGI [17] of the same compound?
Answer: The TGI was greater than 100 µM.

Question: What about the TGI [18] of the same compound?
Answer: Its TGI is greater than 100 µM.

Question: What about the TGI [53] of the same compound?
Answer: The TGI was greater than 100 µM.

Question: What about the TGI [20] of the same compound?
Answer: The TGI was greater than 100 µM.

Question: What about the TGI [22] of the same compound?
Answer: The TGI was greater than 100 µM.

Question: And the TGI [23]?
Answer: The TGI was greater than 100 µM.

Question: And the TGI [24]?
Answer: Its TGI is greater than 100 µM.

Question: And the TGI [25]?
Answer: The TGI was greater than 100 µM.

Question: What about the TGI [54] of the same compound?
Answer: The TGI was greater than 100 µM.

Question: And the TGI [26]?
Answer: The TGI was greater than 100 µM.

Question: What about the TGI [27] of the same compound?
Answer: Its TGI is 78.6 µM.

Question: What about the TGI [28] of the same compound?
Answer: Its TGI is greater than 100 µM.

Question: What about the TGI [29] of the same compound?
Answer: Its TGI is greater than 100 µM.

Question: And the TGI [30]?
Answer: Its TGI is greater than 100 µM.

Question: And the TGI [31]?
Answer: The TGI was greater than 100 µM.

Question: What about the TGI [32] of the same compound?
Answer: Its TGI is greater than 100 µM.

Question: And the TGI [33]?
Answer: The TGI was greater than 100 µM.

Question: What about the TGI [34] of the same compound?
Answer: The TGI was greater than 100 µM.

Question: And the TGI [35]?
Answer: Its TGI is greater than 100 µM.

Question: And the TGI [36]?
Answer: The TGI was greater than 100 µM.

Question: And the TGI [55]?
Answer: Its TGI is greater than 100 µM.

Question: And the TGI [38]?
Answer: Its TGI is greater than 100 µM.

Question: And the TGI [39]?
Answer: Its TGI is greater than 100 µM.

Question: And the TGI [40]?
Answer: The TGI was greater than 100 µM.

Question: And the TGI [41]?
Answer: The TGI was greater than 100 µM.

Question: What about the TGI [42] of the same compound?
Answer: The TGI was greater than 100 µM.

Question: And the TGI [56]?
Answer: Its TGI is greater than 100 µM.

Question: What about the TGI [43] of the same compound?
Answer: The TGI was greater than 100 µM.

Question: And the TGI [44]?
Answer: The TGI was greater than 100 µM.

Question: What about the TGI [45] of the same compound?
Answer: The TGI was greater than 100 µM.

Question: And the TGI [46]?
Answer: Its TGI is greater than 100 µM.

Question: What about the TGI [48] of the same compound?
Answer: The TGI was greater than 100 µM.

Question: What about the TGI [49] of the same compound?
Answer: The TGI was greater than 100 µM.

Question: And the TGI [50]?
Answer: Its TGI is greater than 100 µM.

Question: What about the TGI [57] of the same compound?
Answer: The TGI was greater than 100 µM.

Question: And the TGI [51]?
Answer: The TGI was greater than 100 µM.
